Patent publication US8063225B2, “Tricyclic compound derivatives useful in the treatment of neoplastic diseases, inflammatory disorders and immunomodulatory disorders” (Chembridge Corporation, priority 2006, dated 2011)

Columns and labels:
Type in all cases: cell-based
My5 = assay: Cell proliferation inhibition, MTT assay, My5; details: Homo sapiens, Multiple myeloma cell, 72 h, My5 multiple myeloma cells, 3-day proliferation
Description: (§1) IGF1R and other tyrosine kinase inhibitors can inhibit the proliferation of certain cancer cell lines indicating their possible therapeutic utility for treating the corresponding cancer types. Cancer cell lines of interest and control normal lines, including CHO, HEK293, BA/F3, COLO205, PC3, DU145, MCF7, Panc1, ACHN, Hep G2, H460, K562, TT, U87-MG, CAOV-3, SK-MEL5, Karpas 299 and human multiple myeloma cell lines H929, MM1s, MM1r, UTMC2, CPM2, KMS11, My5, KMS12PE, My7, JJN3, KMS18, U266, SKMM2, RPMI-8226 are plated in white, clear-bottomed 384-well cell culture plates at 2500-5000 cells per well and supplied with dilutions of tested compounds After a desired period of time (typically 3 days), the number of viable cells is quantitated by using Cell Titer-Glo Luminescent Cell Viability Assay (Promega), a cell proliferation assay system based on detection of total amount of ATP present as a measure of cell metabolic activity. The plated cells are mixed with the Cell Titer-Glo developing reagent and counted in a luminescence multiwell plate reader according to the standard manufacturer's protocol to generate IC50 curves for cell proliferation inhibition. Results are typically reported as percent of growth (% viability =(OD72h(compound)−ODday0))/(OD72h(no compound)−ODday0). Alternatively, viable cells are quantitated by using the conventional colorimetric MTT assay. The MTT assay is based on the cleavage of the yellow tetrazolium salt MTT to purple formazan crystal by metabolic active cells. The formazan is then solubilized, and the concentration determined by optical density at 570 nm. The cells plated and incubated with a compound as described above are supplemented with the solution of MTT and incubated for 2-3 hours. The growth medium is removed and dimethyl sulfoxide is added into each well to dissolve the formazan. The absorbance is measured on an ELISA plate reader with a test wavelength of 570 nm and a background subtraction wavelength of 630 nm to obtain sample signal (OD570-OD630). […] The results are reported in terms of IC50 value for a particular compound and a cell line in the standard 3-day proliferation assay using Cell Titer-Glo. […] The results are reported in terms of IC50 value for a particular compound and a cell line in the standard 3-day proliferation assay using MTT assay.

KMS12PE = assay: Cell proliferation inhibition, MTT assay, KMS12PE; details: Homo sapiens, 72 h, KMS-12PE multiple myeloma cells, 3-day proliferation
Description: as §1

My7 = assay: Cell proliferation inhibition, MTT assay, My7; details: Homo sapiens, Multiple myeloma cell, 72 h, My7 multiple myeloma cells, 3-day proliferation
Description: as §1

JJN3 = assay: Cell proliferation inhibition, MTT assay, JJN3; details: Homo sapiens, JJN-3, 72 h, JJN3 multiple myeloma cells, 3-day proliferation
Description: as §1

KMS18 = assay: Cell proliferation inhibition, MTT assay, KMS18; details: Homo sapiens, 72 h, KMS18 multiple myeloma cells, 3-day proliferation
Description: as §1

U266 = assay: Cell proliferation inhibition, MTT assay, U266; details: Homo sapiens, U-266, 72 h, U266 multiple myeloma cells, 3-day proliferation
Description: as §1

SKMM2 = assay: Cell proliferation inhibition, MTT assay, SKMM2; details: Homo sapiens, SK-MM-2, 72 h, SKMM2 multiple myeloma cells, 3-day proliferation
Description: as §1

RPMI-8226 = assay: Cell proliferation inhibition, MTT assay, RPMI-8226; details: Homo sapiens, 72 h, RPMI-8226 multiple myeloma cells, 3-day proliferation
Description: as §1

SMILES	IC50 (U266) [µM]	IC50 (SKMM2) [µM]	IC50 (RPMI-8226) [µM]	IC50 (My5) [µM]	IC50 (KMS12PE) [µM]	IC50 (My7) [µM]	IC50 (JJN3) [µM]	IC50 (KMS18) [µM]
CN1CCC(N2Cc3cc4[nH]c(-c5c(NCC(=O)COc6ccccc6Br)cc[nH]c5=O)nc4cc3C2=O)CC1 [drawing 848]	1 to 5	1 to 5	5 to 20	1 to 5	1 to 5	1 to 5	1 to 5	0.5 to 1
COc1ccc(OCC(=O)CNc2cc[nH]c(=O)c2-c2nc3cc4c(cc3[nH]2)C(=O)N(C2CCN(C)CC2)C4)c(Cl)c1 [drawing 850]	1 to 5	5 to 20	5 to 20	5 to 20	1 to 5	5 to 20	1 to 5	1 to 5
Cc1ccc(OCC(=O)CNc2cc[nH]c(=O)c2-c2nc3cc4c(cc3[nH]2)CN(CCCN2CCCC2)C4=O)c(C)c1 [drawing 847]	5 to 20	5 to 20	5 to 20	5 to 20	5 to 20	5 to 20	5 to 20	5 to 20

Continued, in another order:

IC50 (U266) [µM]	IC50 (SKMM2) [µM]	IC50 (RPMI-8226) [µM]	SMILES	IC50 (My5) [µM]	IC50 (KMS12PE) [µM]	IC50 (My7) [µM]	IC50 (JJN3) [µM]	IC50 (KMS18) [µM]
1 to 5	5 to 20	5 to 20	CCc1cc2c(cc1OCC(=O)CNc1cc[nH]c(=O)c1-c1nc3cc4c(cc3[nH]1)C(=O)N(C1CCN(C)CC1)C4)OCO2 [drawing 849]	5 to 20	5 to 20	1 to 5	1 to 5	1 to 5
1 to 5	5 to 20	5 to 20	Cc1ccc(OCC(=O)CNc2cc[nH]c(=O)c2-c2nc3cc4c(cc3[nH]2)CN(C2CCN(C)CC2)C4=O)c(C)c1 [drawing 845]	1 to 5	1 to 5	1 to 5	1 to 5	1 to 5
